Experimental data from ChEMBL document CHEMBL1154570, “HIV-inhibitory cembrane derivatives from a Philippines collection of the soft coral Lobophytum species” (J Nat Prod, 2000).
Converted amounts (≈) assume the structure as drawn.

Columns and labels:
[1] = tested on: Human immunodeficiency virus 1; assay: Antiviral activity against HIV1 assessed as inhibition of cytopathic effect by cell based XTT assay; type: functional, organism-based
[2] = tested on: Human immunodeficiency virus 1; assay: Antiviral activity against HIV1 assessed as cellular protection by cell based XTT assay; type: functional

Structure (SMILES): C/C1=C\[C@@H]2OC(=O)[C@@H](CN(C)C)[C@@H]2CC/C(C)=C/CC/C(C(=O)O)=C/CC1
- EC50 [1]: 3.3 µg/mL (≈ 8.79 µM)
- IC50 [1]: 10.2 µg/mL (≈ 27.2 µM)
- Activity [2]: 55%

Structure (SMILES): C=C1C(=O)O[C@H]2/C=C(\C)CC/C=C(\C(=O)O)CC/C=C(\C)CC[C@@H]12 [(7Z)-LOBOHEDLEOLIDE]
- EC50 [1]: 4.6 µg/mL (≈ 13.9 µM)
- IC50 [1]: 7.6 µg/mL (≈ 23 µM)
- Activity [2]: 55%

Structure (SMILES): C=C1C(=O)O[C@H]2/C=C(\C)CC/C=C(/C(=O)O)CC/C=C(\C)CC[C@@H]12 [LOBOHEDLEOLIDE]
- EC50 [1]: 3.6 µg/mL (≈ 10.9 µM)
- IC50 [1]: 9 µg/mL (≈ 27.2 µM)
- Activity [2]: 55%
